Measured values: paper PMC7157825, “Romo1-Derived Antimicrobial Peptide Is a New Antimicrobial Agent against Multidrug-Resistant Bacteria in a Murine Model of Sepsis” (mBio, 2020)
Where no end group is shown, it is not given here.

What was measured:
[1] = test system: CRAB; assay: Murine model of sepsis caused by MDR bacteria; format: in vivo, mouse; details: 5 × 10^8 CFU iv; AMPR-11 10 mg/kg iv single dose; imipenem 10 mg/kg ip four times q12h; 15 mice/group
[2] = test system: CRPA; assay: Murine model of sepsis caused by MDR bacteria; format: in vivo, mouse; details: for increase of survival rate: 8 × 10^7 CFU iv, AMPR-11 10 mg/kg iv single dose, imipenem 10 mg/kg ip four times q12h, 15 mice/group
[3] = test system: CRKP; assay: Murine model of sepsis caused by MDR bacteria; format: in vivo, mouse; details: 8 × 10^8 CFU iv; AMPR-11 10 mg/kg iv single dose; imipenem 10 mg/kg ip four times q12h; 15 mice/group
[4] = test system: MRSA; assay: Murine model of sepsis caused by MDR bacteria; format: in vivo, mouse; details: for increase of survival rate: 3 × 10^8 CFU iv, AMPR-11 10 mg/kg iv single dose, imipenem 10 mg/kg ip four times q12h, 15 mice/group
[5] = test system: S. aureus (ATCC 29213); format: cell-based, Staphylococcus aureus; details: ATCC 29213, 1 h, pH 7.4
Description: (§1) The minimum bactericidal concentration was determined as previously described with minor modifications ([29]). Briefly, bacteria (5 × 10^5 CFU/ml) in 10 mM phosphate buffer (pH 7.4) with a 1% volume of TS broth were incubated with various peptide dilutions in a 96-well plate. After incubation for 1 h, samples were placed on TS agar plates and incubated overnight at 37°C. The peptide concentration at which no colonies were identified on the plate was determined to be the MBC.

[6] = test system: P. aeruginosa (ATCC 27853); format: cell-based, Pseudomonas aeruginosa; details: ATCC 27853, 1 h, pH 7.4
Description: as §1

[7] = test system: GFP-expressing EIEC; assay: GFP efflux / permeabilization of GFP-expressing EIEC; format: cell-based, Enteroinvasive Escherichia coli
Description: Flow cytometric assay to measure the efflux of GFP from GFP-expressing EIEC was performed using a FACS Canto II (Biosciences, CA). […] The number of internalized EIEC in HeLa cells (pcDNA 3.1 or pcDNA 3.1-Flag-Romo1/Control siRNA, Romo1 siRNA-1, or Romo1 siRNA-2) was measured using CFDA-stained EIEC. The data were measured and analyzed with FlowJo software (Tree Star, Inc., Ashland, OR).

[8] = test system: P. aeruginosa (ATCC 27853); assay: Murine model of sepsis; format: in vivo, mouse
[9] = test system: Vancomycin-resistant E. faecium; format: cell-based, Enterococcus faecium; details: 1 h, pH 7.4
Description: as §1

[10] = Protein lipid overlay (PLO) assay; format: binding; details: TAMRA-AMPR-11 2 μg/ml, 2 h; 20 pmol of each lipid (PC, PG, PS, PE, PA, PI, lipid A, CL) on nitrocellulose
Description: The experiment was performed as previously described ([53]) with minor modifications. The lipid of PC, PG, PS, PE, PA, PI, lipid A, or CL was diluted and placed on the supported nitrocellulose membrane at 20 pmol and dried at room temperature. The membrane was blocked with Tris-buffered saline-Tween 20 (TBS-Tween 20, 50 mM Tris-HCl, 150 mM NaCl, and 0.1% Tween 20) containing 0.2% fatty acid-free bovine albumin for 1 h. After several washes in TBS, the membrane was incubated with TAMRA-AMPR-11 at 2 μg/ml in blocking solution for 2 h. After several washes with TBS-Tween 20, the fluorescent signal was detected using a fluorescent image scanner (Typhoon FLA 9500).

[11] = Functional half-life of antimicrobial activity in human serum; format: in vitro ADME; details: human serum (H4522; Sigma-Aldrich); pre-incubation 0, 5, 15, 30, 45, 60, or 75 min, then P. aeruginosa or S. aureus for 1 h; read-out CFU assay (antimicrobial activity)
[12] = test system: A. baumannii (ATCC 19606); assay: Murine model of sepsis; format: in vivo, mouse
[13] = Effect of blood components on antimicrobial activity; format: in vitro ADME; details: mouse RBCs, human LDL, human HDL, bovine serum albumin; incubated for indicated times, then bacteria 1 h; CFU assay
[14] = Functional half-life of antimicrobial activity in mouse plasma; format: in vitro ADME; details: 75% PBS and 25% mouse plasma (EDTA separation); pre-incubation 0, 5, 15, 30, 45, 60, or 75 min, then P. aeruginosa or S. aureus for 1 h; read-out CFU assay (antimicrobial activity)
[15] = test system: S. aureus (ATCC 29213); assay: Murine model of sepsis; format: in vivo, mouse
[16] = test system: S. pneumoniae; format: cell-based; details: 1 h, pH 7.4
Description: as §1

[17] = test system: Mouse RBCs; format: cell-based
Description: Mouse RBCs were rinsed several times with PBS and centrifuged for 10 min at 2,000 rpm. […] After incubating for 1 h, the cells were pelleted at 1,000 × g for 10 min, and the absorbance of the supernatant was measured at 570 nm. The OD of the control was that of PBS (blank), and 1% Triton X-100 was used as the positive control.

[18] = test system: K. pneumoniae (ATCC 13883); assay: Murine model of sepsis; format: in vivo, mouse
[19] = test system: C57BL/6 mouse; assay: Single-dose safety in mice; details: single dose 100 mg/kg intravenously; tracked for 15 days; compared to PBS
[20] = CF release from CF-encapsulated large unilamellar vesicles; details: 1 μg/ml of peptide; fluorescence; compared with melittin, magainin 2, daptomycin
Description: Portions (10 μl) of the lipid mixture of E. coli total lipid extract were dried and rehydrated with 50 mM CF, 100 mM sucrose, and 5 mM HEPES/KOH (pH 7.4). Multilamellar liposomal suspensions were extruded with a 0.1-μm polycarbonate membrane using an Avanti Mini Extruder and purified by a PD-10 column (GE Healthcare, Buckinghamshire, United Kingdom) as previously described. The peptides were added to LUVs, and CF leakage was measured using Fluroskan Ascent FL (Thermo Labsystems, UK) in external buffer (150 mM KCl and 10 mM HEPES/Tris; pH 7). CF leakage was calculated using the following formula: CF leakage (%) = 100 × (F – F0)/(Fmax – F0), where F is the measured fluorescence intensity, F0 is the basal LUV fluorescence intensity, and Fmax is the fluorescence intensity of LUVs treated with 0.2% Triton X-100.

[21] = test system: Vancomycin-resistant S. aureus; format: cell-based, Staphylococcus aureus; details: 1 h, pH 7.4
Description: as §1

[22] = test system: EIEC; assay: EIEC growth by spectrophotometry; format: cell-based, Enteroinvasive Escherichia coli; details: 1 μg/ml of Romo1 protein
[23] = mouse blood after 48 h of infection, 10 mg/kg iv single dose
[24] = peptides iv 1 h after infection, tail vein blood 1 h after peptide administration

## C[C@@H](O)[C@H]1C(=O)N2C(C(=O)O)=C(SCCN=CN)C[C@H]12 [imipenem, reference compound]
[1]
  increase of survival rate: of little effectiveness
[2]
  increase of survival rate: of little effectiveness
[3]
  increase of survival rate: of little effectiveness
[4]
  increase of survival rate: of little effectiveness

## GGIGKTMMQSGGTFGTFMAIGMGIR [G54-R78]
[5]
  MBC value S. aureus: 300 mg/L
[6]
  MBC value P. aeruginosa: 300 mg/L

## GGIGKTMMQSGGTFGTFMAIGMGIRC [G54-C79]
[5]
  MBC value S. aureus: 300 mg/L
[6]
  MBC value P. aeruginosa: 300 mg/L

## GKTMMQSGGTFGTFMAIGMGIR [G57-R78]
[5]
  MBC value S. aureus: 300 mg/L
[6]
  MBC value P. aeruginosa: 280 mg/L

## GKTMMQSGGTFGTFMAIGMGIRC [G57-C79]
[5]
  MBC value S. aureus: 280 mg/L
[6]
  MBC value P. aeruginosa: 250 mg/L

## IGKTMMQSGGTFGTFMAIGMGIR [I56-R78]
[5]
  MBC value S. aureus: 300 mg/L
[6]
  MBC value P. aeruginosa: 300 mg/L

## IGKTMMQSGGTFGTFMAIGMGIRC [I56-C79]
[5]
  MBC value S. aureus: 300 mg/L
[6]
  MBC value P. aeruginosa: 300 mg/L

## KTMMQSGGTFGTFMAIGM [K58-M75]
[5]
  MBC value S. aureus: 300 mg/L
[6]
  MBC value P. aeruginosa: 300 mg/L

## KTMMQSGGTFGTFMAIGMG [K58-G76]
[5]
  MBC value S. aureus: 300 mg/L
[6]
  MBC value P. aeruginosa: 300 mg/L

## KTMMQSGGTFGTFMAIGMGI [K58-I77]
[5]
  MBC value S. aureus: 300 mg/L
[6]
  MBC value P. aeruginosa: 300 mg/L

## KTMMQSGGTFGTFMAIGMGIR [AMPR-11]
[1]
  increase of survival rate: > 60%
[7]; Fig. 2E, TAMRA-AMPR-11 with GFP-expressing EIEC
  time to kill bacteria: ≤ 10 min
[8]; C57BL/6N mice, 2 × 10^7 CFU iv, AMPR-11 10 mg/kg iv single dose 1 h after infection, 20 mice/group, 15 days
  increase of survival rate: > 60%
[8]; [23]
  bacterial load in blood: decrease in the bacterial load in blood
[2]
  increase of survival rate: > 60%
[2]; [24]
  antimicrobial activity in blood (CFU counts) compared with known AMPs: statistically better than that of magainin 2, LL-37, or daptomycin
[9]
  MBC value Vancomycin-resistant E. faecium: 100 mg/L
[10]
  lipid preference (binding): specifically bound to lipid A and cardiolipin (CL)
[11]
  functional half-life in serum: ~40 min
[12]; C57BL/6N mice, 4 × 10^8 CFU iv, AMPR-11 10 mg/kg iv single dose 1 h after infection, 15 mice/group, 15 days
  increase of survival rate: > 60%
[12]; [23]
  bacterial load in blood: decrease in the bacterial load in blood
[13]
  antimicrobial activity after incubation with blood components: not inhibited by RBCs, LDL, HDL, or albumin
[14]
  functional half-life in plasma: approximately 50 min
[3]
  increase of survival rate: > 60%
[15]; AMPR-11 administered immediately after infection, tail vein blood, CFU relative to PBS group
  bacterial load in blood over time: rapidly decreased the bacterial load in blood
[15]; C57BL/6N mice, 1 × 10^8 CFU iv, AMPR-11 10 mg/kg iv single dose 1 h after infection, 20 mice/group, 15 days
  increase of survival rate: > 60%
[15]; [23]
  bacterial load in blood: decrease in the bacterial load in blood
[4]
  increase of survival rate: > 60%
[4]; CFU assay of organ homogenates, 10 mg/kg iv single dose
  bacterial load in the liver, spleen, and kidney: decrease in bacterial load in the liver, spleen, and kidney
[4]; [24]
  antimicrobial activity in blood (CFU counts) compared with known AMPs: statistically better than that of magainin 2, LL-37, or daptomycin
[16]
  MBC value S. pneumoniae: 100 mg/L
[17]
  hemolytic activity: less cytotoxicity (Fig. 4A) and hemolytic activity (Fig. 4B) than magainin 2 and daptomycin
[18]; C57BL/6N mice, 8 × 10^8 CFU iv, AMPR-11 10 mg/kg iv single dose 1 h after infection, 15 mice/group, 15 days
  increase of survival rate: > 60%
[18]; [23]
  bacterial load in blood: decrease in the bacterial load in blood
[19]
  clinical signs (death, weight loss): no severe clinical signs such as death or weight loss
[20]
  CF release: to a similar extent as melittin
[21]
  MBC value Vancomycin-resistant S. aureus: 120 mg/L

## KTMMQSGGTFGTFMAIGMGIRC [K58-C79]
[5]
  MBC value S. aureus: 150 mg/L
[6]
  MBC value P. aeruginosa: 130 mg/L

## LMGGIGKTMMQSGGTFGTFMAIGMGIR [L52-R78]
[5]
  MBC value S. aureus: 300 mg/L
[6]
  MBC value P. aeruginosa: 300 mg/L

## LMGGIGKTMMQSGGTFGTFMAIGMGIRC [L52-C79]
[5]
  MBC value S. aureus: 300 mg/L
[6]
  MBC value P. aeruginosa: 300 mg/L

## MMQSGGTFGTFMAIGMGIR [M60-R78]
[5]
  MBC value S. aureus: 300 mg/L
[6]
  MBC value P. aeruginosa: 300 mg/L

## MMQSGGTFGTFMAIGMGIRC [M60-C79]
[5]
  MBC value S. aureus: > 300 mg/L
[6]
  MBC value P. aeruginosa: > 300 mg/L

B1: Romo1: reactive oxygen species modulator 1, chemically synthesized, dissolved in 75% trifluoroethanol (peptide, UniProt P60602 2-79, looked up)
Reactive oxygen species …: PVAVGPYGQSQPSCFDRVKMGFVMGCAVGMAAGALFGTFSCLRIGMRGRELMGGIGKTMMQSGGTFGTFMAIGMGIRC
[22]
  bacterial growth: inhibited EIEC growth
[7]; 100 nM Romo1, flow cytometry
  GFP efflux: induced green fluorescent protein (GFP) efflux
